Measurements reported in patent US6706663B2, “Herbicidal 3-heterocyclic substituted benzisothiazole and benzisoxazole compounds” (Wyeth, priority 2000, dated 2004).

Experiments:
[1] = test system: AMBEL (Ambrosia artemisifolia); test: Postemergence herbicidal evaluation; format: in vivo, L.
Summary of the method: (§1)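 Visual 0–9 injury scores versus control plants, covering stand, vigour, malformation, size, chlorosis and general appearance, taken four to five weeks post-spray and averaged over replicate tests. Plants were sprayed at roughly two weeks old and held on greenhouse benches.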

[2] = test system: CASOB (Cassia obtusifolia); test: Postemergence herbicidal evaluation; format: in vivo, L.
Summary of the method: as §1

[3] = test system: CHEAL (Chenopodium album); test: Postemergence herbicidal evaluation; format: in vivo, L.
Summary of the method: as §1

[4] = test system: ECHCG (Echinochloa crus-galli); test: Postemergence herbicidal evaluation; format: in vivo, (L.) Beau
Summary of the method: as §1

[5] = test system: ORYSAT (Rice, Tebonnet); test: Postemergence herbicidal evaluation; format: in vivo, Oryza sativa, (L.) Tebonnet
Summary of the method: as §1

[6] = test system: ZEAMX (Corn, Field); test: Postemergence herbicidal evaluation; format: in vivo, Zea mays, L.
Summary of the method: as §1

[7] = test system: IPOHE (Ipomoea hederacea); test: Preemergence herbicidal evaluation; format: in vivo, (L.) Jacq.; settings: rated 4-5 weeks after treatment
[8] = test system: GLXMAW (Soybean, Williams); test: Preemergence herbicidal evaluation; format: in vivo, Glycine max, (L.) Merr. cv Williams; settings: rated 4-5 weeks after treatment
[9] = test system: ORYSAT (Rice, Tebonnet); test: Preemergence herbicidal evaluation; format: in vivo, Oryza sativa, (L.) Tebonnet; settings: rated 4-5 weeks after treatment
[10] = test system: TRZAWR (Wheat, Winter, cv Riband); test: Preemergence herbicidal evaluation; format: in vivo, Triticum aestivum; settings: rated 4-5 weeks after treatment
Summary of the method: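 Visual 0-9 rating versus untreated control, taken four to five weeks post-treatment, scoring stand, vigor, malformation, size, chlorosis and overall appearance. Compound applied as aqueous acetone spray to freshly seeded soil cups, then kept under standard greenhouse care.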

[11] = test system: ECHORC (Echinochloa oryzoides); test: Flooded paddy, preemergence weed control; format: in vivo, Echinochloa oryzoides (Ard.) Fritsch.; settings: rated 3-4 weeks after treatment, 0-9 rating scale
Summary of the method: (§2)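 Visual 0-9 rating versus control, scoring stand, vigor, malformation, size, chlorosis and overall appearance. Silt loam soil, propagules in top 0.5 cm; flood depth 1.5–3 cm held for the whole test; greenhouse.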

[12] = test system: CYPIR (Cyperus iria); test: Flooded paddy, preemergence weed control; format: in vivo; settings: rated 3-4 weeks after treatment, 0-9 rating scale
Summary of the method: as §2

[13] = test system: SAGPY (Sagittaria pygmaea); test: Flooded paddy, preemergence weed control; format: in vivo, L.; settings: rated 3-4 weeks after treatment, 0-9 rating scale
Summary of the method: as §2

SMILES | Postemergence herbicidal rating, AMBEL ([1]; rate 0.0320 kg/ha) | Postemergence herbicidal rating, AMBEL ([1]; rate 0.0620 kg/ha) | Postemergence herbicidal rating, CASOB ([2]; rate 0.0320 kg/ha) | Postemergence herbicidal rating, CASOB ([2]; rate 0.0620 kg/ha) | Postemergence herbicidal rating, CHEAL ([3]; rate 0.0320 kg/ha) | Postemergence herbicidal rating, CHEAL ([3]; rate 0.0620 kg/ha) | Postemergence herbicidal rating, ECHCG ([4]; rate 0.0320 kg/ha) | Postemergence herbicidal rating, ECHCG ([4]; rate 0.0620 kg/ha) | Postemergence herbicidal rating, ORYSAT ([5]; rate 0.0320 kg/ha) | Postemergence herbicidal rating, ORYSAT ([5]; rate 0.0620 kg/ha) | Postemergence herbicidal rating, ZEAMX ([6]; rate 0.0320 kg/ha) | Postemergence herbicidal rating, ZEAMX ([6]; rate 0.0620 kg/ha) | herbicidal rating, ECHORC ([11]; rate 0.0320 kg/ha) | herbicidal rating, ECHORC ([11]; rate 0.1250 kg/ha) | herbicidal rating, CYPIR ([12]; rate 0.0320 kg/ha) | herbicidal rating, CYPIR ([12]; rate 0.1250 kg/ha) | herbicidal rating, SAGPY ([13]; rate 0.0320 kg/ha) | herbicidal rating, SAGPY ([13]; rate 0.1250 kg/ha) | Preemergence herbicidal rating IPOHE ([7]; Rate 0.0620 kg/ha) | Preemergence herbicidal rating GLXMAW ([8]; Rate 0.0620 kg/ha) | also measured
Cc1ccn(-c2nsc3ccc(-n4c(=O)cc(C(F)(F)F)n(C)c4=O)cc23)n1 [Compound 38, 1-methyl-3-[3-(3-methylpyrazol-1-yl)-1,2-benzisothiazol-5-yl]-6-(trifluoromethl)uracil] | 0.0 | 0.0 | 0.0 | 1.0 | 0.0 | 3.0 | 0.0 | 3.0 | 2.5 | 3.5 | 5.0 | 5.5 | 7.0 | 9.0 | 9.0 | 9.0 | 4.5 | 9.0 |  |  | IPOHE preemergence herbicidal rating ([7]; Rate 0.0620 kg/ha): 0.0; IPOHE preemergence herbicidal rating ([7]; Rate 0.1250 kg/ha): 0.0; IPOHE preemergence herbicidal rating ([7]; Rate 0.2500 kg/ha): 6.0; GLXMAW preemergence herbicidal rating ([8]; Rate 0.0620 kg/ha): 0.0; GLXMAW preemergence herbicidal rating ([8]; Rate 0.1250 kg/ha): 4.0; GLXMAW preemergence herbicidal rating ([8]; Rate 0.2500 kg/ha): 4.0; ORYSAT preemergence herbicidal rating ([9]; Rate 0.0620 kg/ha): 4.0; ORYSAT preemergence herbicidal rating ([9]; Rate 0.1250 kg/ha): 5.0; ORYSAT preemergence herbicidal rating ([9]; Rate 0.2500 kg/ha): 7.0; TRZAWR preemergence herbicidal rating ([10]; Rate 0.0620 kg/ha): 3.0; TRZAWR preemergence herbicidal rating ([10]; Rate 0.1250 kg/ha): 4.0; TRZAWR preemergence herbicidal rating ([10]; Rate 0.2500 kg/ha): 5.0; herbicidal rating, ECHORC ([11]; rate 0.0080 kg/ha): 0.0; herbicidal rating, CYPIR ([12]; rate 0.0080 kg/ha): 3.0; herbicidal rating, SAGPY ([13]; rate 0.0080 kg/ha): 0.0
C#CCOC(=O)COc1ccsc1-c1nsc2ccc(-n3c(=O)cc(C(F)(F)F)n(C)c3=O)cc12 [Compound 39, 2-propynyl [[2-[5-[3,6-dihydro-3-methyl-2,6-dioxo-4-(trifluoromethyl)-1(2H)-pyrimidinyl]-1,2-benzisothiazol-3-yl]-3-thienyl]oxy]acetate] | 3.0 | 3.0 | 0.0 | 0.0 | 0.0 | 4.0 | 0.0 | 1.0 | 1.5 | 2.0 | 4.5 | 5.0 | 0.0 | 0.0 | 5.0 | 5.0 | 0.0 | 3.0 | 0.0 | 0.0 | IPOHE preemergence herbicidal rating ([7]; Rate 0.1250 kg/ha): 0.0; IPOHE preemergence herbicidal rating ([7]; Rate 0.2500 kg/ha): 1.0; GLXMAW preemergence herbicidal rating ([8]; Rate 0.1250 kg/ha): 1.0; GLXMAW preemergence herbicidal rating ([8]; Rate 0.2500 kg/ha): 1.0; Preemergence herbicidal rating ORYSAT ([9]; Rate 0.0620 kg/ha): 0.0; ORYSAT preemergence herbicidal rating ([9]; Rate 0.1250 kg/ha): 0.0; ORYSAT preemergence herbicidal rating ([9]; Rate 0.2500 kg/ha): 1.0; Preemergence herbicidal rating TRZAWR ([10]; Rate 0.0620 kg/ha): 0.0; TRZAWR preemergence herbicidal rating ([10]; Rate 0.1250 kg/ha): 0.0; TRZAWR preemergence herbicidal rating ([10]; Rate 0.2500 kg/ha): 1.0
Cc1cc(C)nc(-c2nsc3ccc(-n4c(=O)cc(C(F)(F)F)n(C)c4=O)cc23)n1 [Compound 40, 3-[3-(4,6-dimethyl-2-pyrimidinyl)-1,2-benzisothiazol-5-yl]-1-methyl-6-(trifluoromethyl)uracil] | 9.0 | 9.0 | 1.0 | 6.0 | 4.0 | 6.0 | 0.0 | 1.0 | 2.0 | 2.0 | 4.5 | 5.0 | 2.0 | 6.0 | 5.0 | 6.0 | 0.0 | 5.0 | 2.0 | 2.0 | Preemergence herbicidal rating IPOHE ([7]; Rate 0.1250 kg/ha): 7.0; Preemergence herbicidal rating IPOHE ([7]; Rate 0.2500 kg/ha): 9.0; Preemergence herbicidal rating GLXMAW ([8]; Rate 0.1250 kg/ha): 2.0; Preemergence herbicidal rating GLXMAW ([8]; Rate 0.2500 kg/ha): 5.0; Preemergence herbicidal rating ORYSAT ([9]; Rate 0.0620 kg/ha): 1.0; Preemergence herbicidal rating ORYSAT ([9]; Rate 0.1250 kg/ha): 2.0; Preemergence herbicidal rating ORYSAT ([9]; Rate 0.2500 kg/ha): 4.0; Preemergence herbicidal rating TRZAWR ([10]; Rate 0.0620 kg/ha): 1.0; Preemergence herbicidal rating TRZAWR ([10]; Rate 0.1250 kg/ha): 5.0; Preemergence herbicidal rating TRZAWR ([10]; Rate 0.2500 kg/ha): 9.0
Cc1ccc(-c2nsc3ccc(-n4c(=O)cc(C(F)(F)F)n(C)c4=O)cc23)nc1 [Compound 42, 1-methyl-3-[3-(5-methyl-2-pyridyl)-1,2-benzisothiazol-5-yl]-6-(trifluoromethyl)uracil] | 9.0 | 9.0 | 1.0 | 1.0 | 9.0 | 9.0 | 1.0 | 1.0 | 1.0 | 1.5 | 5.5 | 5.5 | 2.0 | 6.0 | 3.0 | 6.0 | 0.0 | 3.0 | 1.0 | 0.0 | Postemergence herbicidal rating, AMBEL ([1]; rate 0.1250 kg/ha): 9.0; Postemergence herbicidal rating, CASOB ([2]; rate 0.1250 kg/ha): 4.0; Postemergence herbicidal rating, CHEAL ([3]; rate 0.1250 kg/ha): 9.0; Postemergence herbicidal rating, ECHCG ([4]; rate 0.1250 kg/ha): 3.0; Postemergence herbicidal rating, ORYSAT ([5]; rate 0.1250 kg/ha): 1.5; Postemergence herbicidal rating, ZEAMX ([6]; rate 0.1250 kg/ha): 5.5; Preemergence herbicidal rating IPOHE ([7]; Rate 0.1250 kg/ha): 2.0; Preemergence herbicidal rating IPOHE ([7]; Rate 0.2500 kg/ha): 4.5; Preemergence herbicidal rating GLXMAW ([8]; Rate 0.1250 kg/ha): 1.0; Preemergence herbicidal rating GLXMAW ([8]; Rate 0.2500 kg/ha): 2.5; Preemergence herbicidal rating ORYSAT ([9]; Rate 0.0620 kg/ha): 0.0; Preemergence herbicidal rating ORYSAT ([9]; Rate 0.1250 kg/ha): 3.5; Preemergence herbicidal rating ORYSAT ([9]; Rate 0.2500 kg/ha): 5.0; Preemergence herbicidal rating TRZAWR ([10]; Rate 0.0620 kg/ha): 0.0; Preemergence herbicidal rating TRZAWR ([10]; Rate 0.1250 kg/ha): 2.0; Preemergence herbicidal rating TRZAWR ([10]; Rate 0.2500 kg/ha): 5.0
